Experimental data published in EP3184516A1, “CRYSTALLINE INCLUSION COMPLEXES OF MIRABEGRON WITH BETA-CYCLODEXTRIN” (Enantia, S.L., priority 2015, dated 2017).
≈ marks a conversion by molar mass, not a printed value. Structures can show the parent of a compound that is named as a salt. Where two headings read alike, the source gives them in different places. Values belong to the compound of their own block, whether it stands above or below them.

Assays:
[1] = cited from earlier work
[2] = Water solubility study at room temperature by HPLC analysis of saturated water solutions; format: physicochemical
Description: A water solubility study at room temperature was performed comparing Mirabegron Form α and crystalline inclusion complexes of Mirabegron with β-cyclodextrin Forms I and II by HPLC analysis of saturated water solutions.
A slurring of Mirabegron Form α was performed under the same conditions.
A slurring of Mirabegron Form α (20 mg) was performed in the same conditions.

[3] = according to EP1440969A1, cited from earlier work
[4] = Solubility tests performed by the present inventors; format: physicochemical
Description: Two different crystal forms of Mirabegron free base, named as α-form and β-form, were also disclosed in EP1440969A1.

[5] = Kalariya et al., RSC Adv. 2015; cited from earlier work

HPLC peak area corresponding to Mirabegron ([2]; 20 mg stirred in 0.8 ml of water for 19h, mother liquor (Form I experiment)): 1728 counts
HPLC peak area corresponding to Mirabegron ([2]; 24 mg (Form α 20 mg) stirred in 1 ml of water for 19h, mother liquor (Form II experiment)): 1570 counts
SMILES: Nc1nc(CC(=O)Nc2ccc(CCNC[C@H](O)c3ccccc3)cc2)cs1 [Mirabegron Form α, 2-(2-amino-1,3-thiazol-4-yl)-N-[4-(2-{[(2R)-2-hydroxy-2-phenylethyl]amino}ethyl)phenyl]acetamide]
solubility in water (in words) ([1]; according to EP1440969A1): practically insoluble
hygroscopicity ([3]; listed as α-form): non-hygroscopic
stability of crystal form ([3]; listed as α-form): stable

solubility in water at room temperature [4]: less than 50 volumes
SMILES: Nc1nc(CC(=O)Nc2ccc(CCNC[C@H](O)c3ccccc3)cc2)cs1 [Mirabegron, 2-(2-amino-1,3-thiazol-4-yl)-N-[4-(2-{[(2R)-2-hydroxy-2-phenylethyl]amino}ethyl)phenyl]acetamide]
solubility in water ([1]; free base, AusPar / FDA prescribing information): 82 µg/mL (≈ 207 µM)
degradation under hydrolytic and oxidative stress conditions [5]: degrades
stability under thermal and photolytic conditions [5]: stable

SMILES: Nc1nc(CC(=O)Nc2ccc(CCNC[C@H](O)c3ccccc3)cc2)cs1 [dihydrochloride salt]
hygroscopicity [3]: strongly hygroscopic
stability of crystal form [3]: unstable

SMILES: Nc1nc(CC(=O)Nc2ccc(CCNC[C@H](O)c3ccccc3)cc2)cs1 [β-form, 2-(2-amino-1,3-thiazol-4-yl)-N-[4-(2-{[(2R)-2-hydroxy-2-phenylethyl]amino}ethyl)phenyl]acetamide]
hygroscopicity [3]: low hygroscopicity
stability of crystal form [3]: metastable
